In publication PMC6010119 (Journal of Enzyme Inhibition and Medicinal Chemistry, 2017):

How the values were obtained:
EGFR = EGFR (Homo sapiens, UniProt P00533); format: biochemical; conditions: test concentration not given; conclusion says EGFR in A549 cancer cells
A549 lung cancer cells = test: cells; conditions: Homo sapiens, A549, read-out: IC50 on A549

EGFR, sequence (P00533 25-1210): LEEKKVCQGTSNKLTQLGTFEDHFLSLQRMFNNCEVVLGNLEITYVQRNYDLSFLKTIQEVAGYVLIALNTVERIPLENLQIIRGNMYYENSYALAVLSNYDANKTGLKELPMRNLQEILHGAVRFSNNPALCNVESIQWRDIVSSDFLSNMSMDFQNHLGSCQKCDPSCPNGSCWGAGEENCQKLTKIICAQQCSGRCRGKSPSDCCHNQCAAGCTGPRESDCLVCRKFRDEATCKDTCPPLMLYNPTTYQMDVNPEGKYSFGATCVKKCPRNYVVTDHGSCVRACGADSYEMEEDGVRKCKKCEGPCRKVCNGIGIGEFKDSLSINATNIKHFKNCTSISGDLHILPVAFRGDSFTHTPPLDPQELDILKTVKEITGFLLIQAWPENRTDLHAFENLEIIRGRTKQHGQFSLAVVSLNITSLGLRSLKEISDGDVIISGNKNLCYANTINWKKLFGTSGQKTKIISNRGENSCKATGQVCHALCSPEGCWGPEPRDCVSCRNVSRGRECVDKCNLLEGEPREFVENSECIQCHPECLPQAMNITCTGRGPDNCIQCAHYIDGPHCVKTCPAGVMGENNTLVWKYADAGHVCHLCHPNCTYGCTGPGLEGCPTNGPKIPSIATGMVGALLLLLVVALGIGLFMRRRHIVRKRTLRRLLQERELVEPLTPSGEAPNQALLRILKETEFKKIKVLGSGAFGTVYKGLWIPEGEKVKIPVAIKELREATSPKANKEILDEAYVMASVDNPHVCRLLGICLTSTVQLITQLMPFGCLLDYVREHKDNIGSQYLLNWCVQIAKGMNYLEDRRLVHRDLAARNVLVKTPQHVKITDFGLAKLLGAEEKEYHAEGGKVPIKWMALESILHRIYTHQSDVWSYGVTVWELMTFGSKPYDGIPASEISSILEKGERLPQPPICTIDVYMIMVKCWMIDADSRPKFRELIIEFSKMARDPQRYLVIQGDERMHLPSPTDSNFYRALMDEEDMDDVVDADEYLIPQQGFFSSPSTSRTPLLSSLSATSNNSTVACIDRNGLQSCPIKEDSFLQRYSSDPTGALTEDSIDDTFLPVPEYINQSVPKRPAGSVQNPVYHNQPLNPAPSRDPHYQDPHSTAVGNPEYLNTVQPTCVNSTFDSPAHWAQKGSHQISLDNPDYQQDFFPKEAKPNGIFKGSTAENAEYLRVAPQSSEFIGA

SMILES | % inhibition of EGFR (EGFR) [%] | IC50 (A549 lung cancer cells) [nM]
Cc1ccccc1NC(=O)CSc1nc2cc3ccccc3cc2c(=O)n1-c1ccc(S(N)(=O)=O)cc1 [Compound 6, 2-(4-Oxo-3-(4-sulfamoylphenyl)-3,4-dihydrobenzo[g]quinazolin-2-ylthio)-N-o-tolylacetamide] | 84.31 | 105 ± 12
C#Cc1cccc(Nc2ncnc3cc(OCCOC)c(OCCOC)cc23)c1 [Erlotinib, reference compound] | – | 727 ± 8
COc1cc(NC(=O)CSc2nc3cc4ccccc4cc3c(=O)n2-c2ccc(S(N)(=O)=O)cc2)cc(OC)c1OC [Compound 15, 2-(4-Oxo-3-(4-sulfamoylphenyl)-3,4-dihydrobenzo[g]quinazolin-2-ylthio)-N-(3,4,5-trimethoxyphenyl)acetamide] | 58.04 | 545 ± 3
Cc1cccc(NC(=O)CSc2nc3cc4ccccc4cc3c(=O)n2-c2ccc(S(N)(=O)=O)cc2)c1 [Compound 7, 2-(4-Oxo-3-(4-sulfamoylphenyl)-3,4-dihydrobenzo[g]quinazolin-2-ylthio)-N-m-tolylacetamide] | 66.85 | 1271 ± 2
Cc1ccc(NC(=O)CSc2nc3cc4ccccc4cc3c(=O)n2-c2ccc(S(N)(=O)=O)cc2)cc1 [Compound 8, 2-(4-Oxo-3-(4-sulfamoylphenyl)-3,4-dihydrobenzo[g]quinazolin-2-ylthio)-N-p-tolylacetamide] | 90.21 | 220 ± 120
NS(=O)(=O)c1ccc(-n2c(SCC(=O)Nc3ccccc3)nc3cc4ccccc4cc3c2=O)cc1 [Compound 5, 2-(4-Oxo-3-(4-sulfamoylphenyl)-3,4-dihydrobenzo[g]quinazolin-2-ylthio)-N-phenylacetamide] | 55.58 | 1017 ± 10
